Measured values published in patent US9765073B2, “Cyclopropabenzofuranyl pyridopyrazinediones” (Pfizer Inc., priority 2015, dated 2017).

Tested on: γ-secretase
Assay: Cell-Based γ-Secretase Assay with ELISA Readout
Set-up: species or system human
Details: comparison of the Table 7 potencies of separated enantiomers
Protocol: The ability of compounds to modulate production of amyloid beta protein Aβ(1-42) was determined using human WT-APP overexpressing CHO cells. Cells were plated at 22,000 cells/100 μL well in 96 well tissue culture treated, clear plates (Falcon) in DMEM/F12 based medium and incubated for 24 h at 37° C. Compounds for testing were diluted in 100% DMSO to achieve an eleven point, half log, dose response for IC50 determinations. Compounds were added in fresh medium to achieve 1% final DMSO. Appropriate vehicle or inhibitor controls were added into control wells individually to obtain minimum or maximum inhibition values, respectively, for the assay signal window before the plates were incubated for ˜24 h at 37° C. This procedure produces conditioned media in each well, which is tested for Aβ(1-42) levels in the ELISA detection step described next. The remaining cell cultures in each well are also tested for cell toxicity as described below.
Coating of ELISA assay plates was initiated by addition of 50 μL/well of an in-house Aβ(1-42) specific antibody (3 μg/mL) in 0.1 M NaHCO3 (pH 9.0) into black 384-well Maxisorp® plates (Nunc); incubation was carried out overnight at 4° C. The capture antibody was then aspirated from the ELISA assay plates and plates were washed either 2×100 μL with a Matrical Squirt plate washer, or 3×90 μL with a Thermo Combi, using Wash Buffer (Dulbecco's PBS, 0.05% Tween 20). 90 μL/well of Blocking Buffer (Dulbecco's PBS, 1.0% BSA (Sigma A7030) was then added to plates. Ambient temperature incubation was allowed to proceed for a minimum of 2 h. Blocking Buffer was then removed and 20 μL/well Assay Buffer (Dulbecco's PBS, 1.0% BSA (Sigma A7030), 0.05% Tween 20) was then added. At this point, 35 μL (40 μL prior to August, 2012) (in duplicate) of experimental conditioned media (described above) was transferred into wells of the blocked ELISA plates containing the capture antibody, followed by overnight incubation at 4° C. Cell toxicity was also measured in the corresponding remaining cells after removal of the conditioned media for the Aβ(1-42) assay by a colorimetric cell proliferation assay (CellTiter 96® AQueous One Solution Cell Proliferation Assay, Promega) according to the manufacturer's instructions.
After overnight incubation of the ELISA assay plates at 4° C., unbound Aβ peptides were removed via either 2×100 μL washes with a Matrical Squirt plate washer, or 3×90 μL washes with a Thermo Combi, using Wash Buffer. Europium (Eu) labeled (custom labeled, PerkinElmer) Aβ(1-16) 6e10 Monoclonal Antibody (Covance #SIG-39320) was added, (50 μL/well Eu-6e10@1:10,000, 20 uM EDTA) in Assay Buffer. Incubation at ambient temperature for a minimum of 2 h was followed by either 2×100 μL washes with a Matrical Squirt plate washer, or 3×90 μL washes with a Thermo Combi, using Wash Buffer, before 30 μL/well of Delfia Enhancement Solution (PerkinElmer) was added. Following 30 to 60 min ambient temperature incubation, the plates were read on an EnVision plate reader (PerkinElmer) using standard DELFIA TRF settings. Data analysis including inhibitory IC50 determination was performed using nonlinear regression fit analysis (in-house software) and the appropriate plate mean values for the maximum and minimum inhibition controls.

Row | Structure (SMILES) | potency compared with its enantiomer
1 | Cc1cn(-c2ccc3n(c2=O)CCN(C[C@@]24C[C@]2(C)Oc2ccc(OC(F)(F)F)cc24)C3=O)cn1 (single isomer, unassigned) [Example 2] | more potent than its enantiomer 3

Same assay, conditions: production of Aβ(1-42) in human WT-APP overexpressing CHO cells, ~24 h; footnote a = single determination, footnote b = geometric mean of ≧5 determinations; read-out: Aβ 42B IC50 (nM) Geometric mean of 2-4 determinations (unless otherwise indicated)

Row | IC50 [nM] | Structure (SMILES)
2 | 4.9 | Cc1cn(-c2ccc3n(c2=O)CCN(C[C@@]24C[C@]2(C)Oc2c(F)cc(OC(F)(F)F)cc24)C3=O)cn1 (single isomer, unassigned) [Example 4]
3 | 48.5 | Cc1cn(-c2ccc3n(c2=O)CCN(CC24CC2Oc2ccc(C(F)(F)F)cc24)C3=O)cn1 (stereo not drawn) [Example 1, 7-(4-Methyl-1H-imidazol-1-yl)-2-{[5-(trifluoromethyl)-1,1a-dihydro-6bH-cyclopropa[b][1]benzofuran-6b-yl]methyl}-3,4-dihydro-2H-pyrido[1,2-a]pyrazine-1,6-dione]
4 | 4.4 | Cc1cn(-c2ccc3n(c2=O)CCN(C[C@@]24C[C@]2(C)Oc2cc(F)c(C(F)(F)F)cc24)C3=O)cn1 (single isomer, unassigned) [Example 17]
5 | 84.9 | Cc1cn(-c2ccc3n(c2=O)CCN(C[C@]24C[C@@]2(C)Oc2cc(F)c(OC(F)F)cc24)C3=O)cn1 (single isomer, unassigned) [Example 13]
6 | 8.5 | Cc1cn(-c2ccc3n(c2=O)CCN(C[C@@]24C[C@]2(C)Oc2ccc(C(F)(F)F)cc24)C3=O)cn1 [Example 15, 7-(4-methyl-1H-imidazol-1-yl)-2-{[(1aS,6bS)-1a-methyl-5-(trifluoromethyl)-1,1a-dihydro-6bH-cyclopropa[b][1]benzofuran-6b-yl]methyl}-3,4-dihydro-2H-pyrido[1,2-a]pyrazine-1,6-dione]
7 | 20.2 | Cc1cn(-c2ccc3n(c2=O)CCN(C[C@]24C[C@@]2(C)Oc2cc(F)c(C(F)(F)F)cc24)C3=O)cn1 (single isomer, unassigned) [Example 18]
8 | 10 | Cc1cn(-c2ccc3n(c2=O)CCN(C[C@]24C[C@@]2(C)Oc2cc(Cl)c(C(F)(F)F)cc24)C3=O)cn1 (single isomer, unassigned) [Example 11]
9 | 3 | Cc1cn(-c2ccc3n(c2=O)CCN(C[C@@]24C[C@]2(C)Oc2cc(Cl)c(C(F)(F)F)cc24)C3=O)cn1 (single isomer, unassigned) [Example 10]
10 | 59.2 | Cc1cn(-c2ccc3n(c2=O)CCN(C[C@]24C[C@@]2(C)Oc2c(F)cc(OC(F)(F)F)cc24)C3=O)cn1 (single isomer, unassigned) [Example 5]
11 | 47.3 | Cc1cn(-c2ccc3n(c2=O)CCN(C[C@]24C[C@@]2(C)Oc2ccc(C(F)(F)F)cc24)C3=O)cn1 [Example 16, 7-(4-methyl-1H-imidazol-1-yl)-2-{[(1aR,6bR)-1a-methyl-5-(trifluoromethyl)-1,1a-dihydro-6bH-cyclopropa[b][1]benzofuran-6b-yl]methyl}-3,4-dihydro-2H-pyrido[1,2-a]pyrazine-1,6-dione]
12 | 9.3 | Cc1cn(-c2ccc3n(c2=O)CCN(CC24CC2(C)Oc2c(F)cc(OC(F)(F)F)cc24)C3=O)cn1 (racemic) [Example C33, 2-{[3-fluoro-1a-methyl-5-(trifluoromethoxy)-1,1a-dihydro-6bH-cyclopropa[b][1]benzofuran-6b-yl]methyl}-7-(4-methyl-1H-imidazol-1-yl)-3,4-dihydro-2H-pyrido[1,2-a]pyrazine-1,6-dione]
13 | 38 | Cc1cn(-c2ccc3n(c2=O)CCN(C[C@]24C[C@@]2(C)Oc2cc(F)c(OC(F)(F)F)cc24)C3=O)cn1 (single isomer, unassigned) [Example 7]
14 | 6.5 | Cc1cn(-c2ccc3n(c2=O)CCN(C[C@@]24C[C@]2(C)Oc2ccc(OC(F)(F)F)cc24)C3=O)cn1 (single isomer, unassigned) [Example 2]
15 | 519 | Cc1ncn(-c2ccc3n(c2=O)CCN(C[C@]24C[C@@]2(C)Oc2cc(F)c(OC(F)(F)F)cc24)C3=O)n1 (single isomer, unassigned) [Example 9]
16 | 11.1 | Cc1cn(-c2ccc3n(c2=O)CCN(C[C@@]24C[C@]2(C)Oc2c(F)cc(C(F)(F)F)cc24)C3=O)cn1 (single isomer, unassigned) [Example 19]
17 | 16 | Cc1cn(-c2ccc3n(c2=O)CCN(C[C@@]24C[C@]2(C)Oc2c(Cl)cc(C(F)(F)F)cc24)C3=O)cn1 (single isomer, unassigned) [Example 21]
18 | 17.8 | Cc1cn(-c2ccc3n(c2=O)CCN(C[C@@]24C[C@]2(C)Oc2cc(F)c(OC(F)F)cc24)C3=O)cn1 (single isomer, unassigned) [Example 12]
19 | 18.7 | C[C@]12C[C@@]1(CN1CCn3c(ccc(-n4cnc(CO)c4)c3=O)C1=O)c1cc(OC(F)(F)F)c(F)cc1O2 [Example 14, 2-{[(1aS,6bS)-4-fluoro-1a-methyl-5-(trifluoromethoxy)-1,1a-dihydro-6bH-cyclopropa[b][1]benzofuran-6b-yl]methyl}-7-[4-(hydroxymethyl)-1H-imidazol-1-yl]-3,4-dihydro-2H-pyrido[1,2-a]pyrazine-1,6-dione]
20 | 50.1 | Cc1cn(-c2ccc3n(c2=O)CCN(C[C@]24C[C@@]2(C)Oc2c(F)cc(C(F)(F)F)cc24)C3=O)cn1 (single isomer, unassigned) [Example 20]
21 | 19.5 | Cc1cn(-c2ccc3n(c2=O)CCN(CC24CC2(C)Oc2ccc(OC(F)(F)F)cc24)C3=O)cn1 (stereo not drawn) [Example C22, 7-(4-methyl-1H-imidazol-1-yl)-2-{[1a-methyl-5-(trifluoromethoxy)-1,1a-dihydro-6bH-cyclopropa[b][1]benzofuran-6b-yl]methyl}-3,4-dihydro-2H-pyrido[1,2-a]pyrazine-1,6-dione]
22 | 58.3 | Cc1cn(-c2ccc3n(c2=O)CCN(C[C@]24C[C@@]2(C)Oc2c(Cl)cc(C(F)(F)F)cc24)C3=O)cn1 (single isomer, unassigned) [Example 22]
23 | 7 | Cc1cn(-c2ccc3n(c2=O)CCN(C[C@@]24C[C@]2(C)Oc2cc(F)c(OC(F)(F)F)cc24)C3=O)cn1 (single isomer, unassigned) [Example 6]
24 | 11.2 | Cc1cn(-c2ccc3n(c2=O)CCN(CC24CC2(C)Oc2cc(F)c(OC(F)(F)F)cc24)C3=O)cn1 (stereo not drawn) [Example C40, 2-{[4-fluoro-1a-methyl-5-(trifluoromethoxy)-1,1a-dihydro-6bH-cyclopropa[b][1]benzofuran-6b-yl]methyl}-7-(4-methyl-1H-imidazol-1-yl)-3,4-dihydro-2H-pyrido[1,2-a]pyrazine-1,6-dione]
25 | 59.2 | Cc1cn(-c2ccc3n(c2=O)CCN(C[C@]24C[C@@]2(C)Oc2ccc(OC(F)(F)F)cc24)C3=O)cn1 (single isomer, unassigned) [Example 3]
26 | 36.6 | Cc1ncn(-c2ccc3n(c2=O)CCN(C[C@@]24C[C@]2(C)Oc2cc(F)c(OC(F)(F)F)cc24)C3=O)n1 (single isomer, unassigned) [Example 8]
27 | 68.9 | Cc1ncn(-c2ccc3n(c2=O)CCN(CC24CC2(C)Oc2cc(F)c(OC(F)(F)F)cc24)C3=O)n1 (stereo not drawn) [Example C44, 2-{[4-fluoro-1a-methyl-5-(trifluoromethoxy)-1,1a-dihydro-6bH-cyclopropa[b][1]benzofuran-6b-yl]methyl}-7-(3-methyl-1H-1,2,4-triazol-1-yl)-3,4-dihydro-2H-pyrido[1,2-a]pyrazine-1,6-dione]
